Data on one molecule can be found in patent US10576151B2, “Ciclopirox for use in modulation of glucose homeostasis” (UNIVERSITY OF SOUTH CAROLINA, priority 2015, dated 2020).

Assay [1] has as its system insulin. Description: Western blot of insulin levels in islets in culture. It is filed as cell-based, mouse. The protocol:
Western Blotting. The mouse islets were treated with CPX 20 μM for 24 h and lysed in RIPA buffer [50 mM Tris, pH 7.2; 150 mM NaCl; 1% sodium deoxycholate; 0.1% SDS; 1% Triton-X 100; 10 mM NaF; 1 mM Na3VO4; protease inhibitor cocktail (1:1000, Sigma, St. Louis, Mo.)] and were subjected to immunoblot analysis by standard methods. Proteins were resolved on a 10% SDS-PAGE and transferred to a nitrocellulose membrane (Bio-Rad, Hercules, Calif.). Membranes were probed overnight with GADD153 (F-168), sc-575 from Santa Cruz Biotechnology (1:50); p21 (F-5), sc-6246 from Santa Cruz Biotechnology (1:200); actin, clone C4 MAB1501 from Millipore (Billerica, Mass., USA) (1:2000); BiP antibody (cat. no. 3183) from Cell Signaling (Danvers, Mass., USA) (1:1000); GRP94 antibody (H-212), sc-11402 from Santa Cruz Biotechnology (1:500); insulin rabbit polyclonal H-86, sc-9168 from Santa Cruz Biotechnology (1:500) antibodies followed by incubation with horseradish peroxidase-conjugated (HRP) anti-mouse (1:10000), goat anti-rabbit IgG (1:10000, Santa Cruz biotechnology Inc., Santa Cruz, Calif., USA) for 1 hr. After incubation with enhanced chemiluminescence reagents (Santa Cruz biotechnology Inc.), membranes were analyzed using an Image J software for Windows.
In order to understand better how CPX operates in β cells, it was tested to determine if it affected the efficiency by which insulin is produced following glucose stimulation. […] In view of the antidiabetic activity of CPX in vivo, the inhibition of insulin release appears contradictory. […]
While modulation of insulin release by CPX constitutes a challenging mechanism by which CPX may affect ER stress, how CPX regulates insulin expression remains obscure. […] To test this hypothesis, islets were exposed to iron citrate, alone or combined with CPX, and the levels were recorded of chaperones BiP, GRP94 and CHOP, as well as of insulin.
Background: In western blotting, separated proteins are transferred to a membrane and probed.

Assay [2] concerns p21. Description: p21 stimulation in islets. The conditions noted are these: dependence on p53. The class given is cell-based, mice. The protocol: Western Blotting. The mouse islets were treated with CPX 20 μM for 24 h and lysed in RIPA buffer [50 mM Tris, pH 7.2; 150 mM NaCl; 1% sodium deoxycholate; 0.1% SDS; 1% Triton-X 100; 10 mM NaF; 1 mM Na3VO4; protease inhibitor cocktail (1:1000, Sigma, St. Louis, Mo.)] and were subjected to immunoblot analysis by standard methods. Proteins were resolved on a 10% SDS-PAGE and transferred to a nitrocellulose membrane (Bio-Rad, Hercules, Calif.). […] After incubation with enhanced chemiluminescence reagents (Santa Cruz biotechnology Inc.), membranes were analyzed using an Image J software for Windows. Islets from wt, p21-deficient, p53-deficient and CHOP-deficient mice were exposed to CPX at 20 μM for 24 h under increasing glucose amounts in the culture media, then they were let to recover for 48 h in normal glucose-containing media and their survival was assessed (FIG. 9). […]

The test system of assay [3] is diabetic wt mice. In words: Fasting glucose in diet-induced diabetic wild type mice. The class given is in vivo, C57BI/6 mice. The conditions noted are these: wt mice diabetic by high fat diet and sweetened water; CPX 25 mg/kg daily (FIG. 5A). From the text: In Vivo Analysis of Anti-Diabetic Effect of CPX. Mice were randomly grouped. A group of C57BI/6 mice 4-5 weeks old, were fed with either a solution of 10% sucrose and a diet containing 40% kcal as a high-fat diet (HFD; Open Source Diets (New Brunswick, N.J., USA) D12451, 40% calories/fat with free access to (10%) sweetened water (sucrose) or a control chow diet containing 10% of kcal as fat (low-fat diet) and drinking water with no added sucrose (control). Mice with a glucose concentration exceeding 180 mg/dL were considered diabetic, after 2 consecutive glucose measurements. The blood glucose levels were measured using an Accu-Check blood glucose monitor (Roche, Indianapolis, Ind., USA) using blood sample collected from the tail vein. Diabetic mice were treated with either treated daily for 20 days by oral gavages with CPX (25 mg/kg) prepared in a solution (4% ethanol, 5.2% Tween 80, and 5.2% PEG 400) or vehicle control. […] Glucose levels of mice were measured by an Accu-Chek Active meter (ROCHE) with blood sample obtained from the tail. […] For insulin resistance test, mice were injected intraperitoneally at a dose of 0.75 units/kg with human insulin (0.75 U/kg body weight; Sigma) at different time points as indicated, as for glucose tolerance after insulin injection and blood glucose was measured as described. […]

For `Cc1cc(C2CCCCC2)n(O)c(=O)c1` [CPX, 6-cyclohexyl-1-hydroxy-4-methylpyridin-2(1H)-one], the “levels of intracellular insulin” value in assay [1] (islets in high glucose-containing media with CPX (FIG. 11B)) was “moderate suppression”. Besides, in assay [1] (islets, iron citrate with concomitant CPX (FIG. 12A)), the insulin production entry is “compromised the effects of iron citrate”. In addition, the “p21-stimulatory activity in the islets” value in assay [2] is on record as “p53-independent”. Moreover, in assay [3], the “blood glucose levels (fasting glucose)” value is recorded as “effectively improved glucose homeostasis causing reduction of blood glucose levels”.
